Results from patent US20130253027A1, “DOSAGES OF ARYLSULFONAMIDE DERIVATIVES” (FOVEA PHARMACEUTICALS, priority 2010, published 2013).
Where “and” joins values, the source holds several entries; their conditions need not be identical. Identical values can stand only once. Blank lines part the entries; values can stand above or below the molecule they belong to.

Assays:
[1] = tested on: streptozotocin-diabetic Brown-Norway rats; assay: Retinal vascular leakage (Evans Blue dye) after eye drops in streptozotocin-diabetic Brown-Norway rats; format: in vivo, rat
Source text: Administration of streptozotocin to rodents produces a massive destruction of pancreatic β-cells, and thus, triggers marked elevation of glycemia and development of a diabetic state which, in part, mimics early stages of type 1 diabetes. In this regard, streptozotocin-treated rats develop an inflammatory retinopathy featured by rupture of the blood-retinal barrier, increase of inflammatory mediators, cytokines and growth factors (VEGF, basic fibroblast growth factor), microglial cell activation and leukostasis.
Male Brown-Norway or Wistar rats were made diabetic by […] of 65 mg/kg intraperitoneal streptozotocin. Rats with a glycemia<350 mg/dl were discarded from the study. […] On day 15, retinal vascular leakage was determined by measurement of retinal content of Evans Blue dye.
Recombinant tissue kallikrein binding protein (rKBP) was used as a reference drug and was given intravitreally 48 hours before vascular leakage measurement. Values are means ±standard error mean of 12 eyes/group (6 rats). *** means that P<0.001 in a Student's t-test.
The route by which the phosphate salt of compound n° 49 reaches the retina following topical instillation was investigated to determine whether it is mainly by systemic circulation or by the trans- and/or peri-ocular pathway.

[2] = tested on: mRNA of cytokines, vasoactive mediators and growth factors in retina; assay: Expression of mRNA of cytokines, vasoactive mediators and growth factors in retina of diabetic Wistar rats; format: in vivo, rat; details: 1% eye drops for 7 days, phosphate salt
Source text: Expression of mRNA of B1R, B2R, i-NOS, e-NOS, COX-2, ICAM-1, VEGF-R2, VEGF-a, IL-1β and HIF-1α was increased in diabetic rat retina compared to control by 7.5-fold (P<0.05), 5.5, 15- (P<0.01), 6.5- , 8- (P<0.05), 8- , 5- (P<0.05), 12-, 6.5- (P<0.01) and 7-fold (P<0.05), respectively. Expression of TNF-α mRNA remained unchanged.

[3] = tested on: leukocyte adhesion to the retinal vasculature; assay: Leukocyte adhesion to the retinal vasculature of streptozotocin-diabetic Wistar rats; format: in vivo, rat; details: phosphate salt, 1% eye drop twice-a-day for 7 days; P<0.05
[4] = Ocular distribution study in albino and pigmented rabbits (14C-compound, single ocular administration); format: in vivo, rabbit
Source text: Further, an ocular distribution study in albino and pigmented rabbits has been performed.

[5] = tested on: mRNA of cytokines, vasoactive mediators and growth factors in retina; assay: Expression of mRNA of cytokines, vasoactive mediators and growth factors in retina of diabetic Wistar rats; format: in vivo, rat; details: 1% eye drops for 7 days, phosphate salt; remark: listed apart in the source
[6] = tested on: STZ diabetic Brown-Norway rats; details: intravitreal route, positive reference drug; cited from earlier work
[7] = single ocular 30 μl of 2% (base equivalent) 14C formulation

Cmax in plasma ([4]; albino and pigmented rabbits (similar profiles), single ocular 30 μl of 2%): 0.088 µg/mL | AUC 0-48 in aqueous, retina, choroids, whole blood and plasma, pigmented rabbit higher than albino [4, 7]: at least 2 fold | Cmax, pigmented rabbit lower than albino [4, 7]: at least 2 fold | t½ in vitreous, retina and choroids, pigmented rabbit higher than albino [4, 7]: at least 2 fold
Molecule: COc1cc(C)c(S(=O)(=O)N(C)CCOCC(=O)N(C)Cc2ccc(C3=NCCN3)cc2)c(C)c1 [compound n° 49]
reduction of retinal edema, maximum ([1]; 1% eye drops, two separate preliminary studies (data not shown)): 58% and 63% | reduction of retinal vascular permeability, treated eye ([1]; 3% phosphate salt in a single eye for 7 days): 37% | reduction of retinal oedema, maximum ([1]; phosphate salt, eye drop (10 μl) 0.1-3% twice daily for 7 days, dose-dependent): 55% | activity of phosphate salt form compared to fumarate salt ([1]; test not specified): equivalent activity | mRNA expression of B1R in retina [2]: down-regulated to control level | mRNA expression of B2R in retina [2]: down-regulated to control level | mRNA expression of COX-2 in retina [2]: down-regulated to control level | mRNA expression of HIF-1α in retina [2]: down-regulated to control level | mRNA expression of ICAM-1 in retina [2]: down-regulated to control level | mRNA expression of VEGF-A in retina (first mention in list) [2]: down-regulated to control level | mRNA expression of e-NOS in retina [2]: down-regulated to control level | mRNA expression of i-NOS in retina [2]: down-regulated to control level | reduction of expression of VEGF-A mRNA in retina [2]: 50% | leukostasis (number of leukocytes in retinal vessels) [3]: significantly blunted | mRNA expression of IL-1α in retina [5]: down-regulated to control level

B1: rKBP: Recombinant tissue kallikrein binding protein, reference drug given intravitreally (protein, UniProt P29622 21-427, looked up)
Kallistatin: QLHVEHDGESCSNSSHQQILETGEGSPSLKIAPANADFAFRFYYLIASETPGKNIFFSPLSISAAYAMLSLGACSHSRSQILEGLGFNLTELSESDVHRGFQHLLHTLNLPGHGLETRVGSALFLSHNLKFLAKFLNDTMAVYEAKLFHTNFYDTVGTIQLINDHVKKETRGKIVDLVSELKKDVLMVLVNYIYFKALWEKPFISSRTTPKDFYVDENTTVRVPMMLQDQEHHWYLHDRYLPCSVLRMDYKGDATVFFILPNQGKMREIEEVLTPEMLMRWNNLLRKRNFYKKLELHLPKFSISGSYVLDQILPRLGFTDLFSKWADLSGITKQQKLEASKSFHKATLDVDEAGTEAAAATSFAIKFFSAQTNRHILRFNRPFLVVIFSTSTQSVLFLGKVVDPTKP
reduction of retinal vascular leakage [6]: approximately 50%
